In publication PMC6466835 (ACS Medicinal Chemistry Letters, 2019):

Assays:
[1] = system: supercoiled plasmid pBR322; test: DNA cleavage assay; assay type: biochemical
[2] = system: double-stranded oligodeoxynucleotide (dsDNA); test: ESI-MS analysis of DNA alkylation; assay type: biochemical; settings: 50 μM compound, 2 μM dsDNA
[3] = Parallel artificial membrane permeation assay; assay type: in vitro ADME; settings: incubation for 1 h, PBS pH 7.4
[4] = system: BxPC-3 pancreatic carcinoma cells; test: MTT cytotoxicity assay, BxPC-3; assay type: cell-based; settings: BxPC-3 cells, L-1 versus D-1
[5] = 2 h at 37 °C, highest concentration 50 μM

SMILES | DNA cleavage activity ([1]; 2 h at 37 °C, 5 and 50 μM) | DNA modifications detected by ESI-MS ([2]; 2 h at 37 °C) | DNA modifications detected by ESI-MS ([2]; 18 h at 37 °C) | PAMPA permeation, in words [3] | DNA cleavage activity [1, 5] | DNA cleavage activity ([1]; 18 h at 37 °C, 5 and 50 μM) | also measured
CCCCN1CCCC(Cl)C1 (stereo not shown) [Compound 1] | inactive | exclusively the signal corresponding to the unreacted DNA substrate | formation of adducts and of abasic lesions | – | – | – | –
CCCCN1CC(Cl)CC(C)(C)C1 (stereo not shown) [Compound 2] | – | additional peaks corresponding to 3-chloropiperidine–DNA adducts were detected | formation of adducts and of abasic lesions | barely detected in the acceptor compartment | caused the conversion of supercoiled DNA into the OC form | – | –
CC1(C)CC(Cl)CN(Cc2ccccc2)C1 (stereo not shown) [Compound 3] | – | – | – | barely detected in the acceptor compartment | caused the conversion of supercoiled DNA into the OC form | – | –
CCCCN1CCC[C@H](Cl)C1 [D-1] | – | – | – | – | – | inactive even after prolonged incubation | –
CCCCN1CCC[C@@H](Cl)C1 [L-1] | – | – | – | – | – | more active than the racemate 1 | eudismic ratio [4]: ~40
O=C(O)CCCc1ccc(N(CCCl)CCCl)cc1 [chlorambucil, reference compound] | inactive at all concentrations | – | – | – | – | – | –
